Data on three compounds can be found in PMC10992195, “Identification, heterologous expression and characterization of a new unspecific peroxygenase from Marasmius fiardii PR-910” (Bioresources and Bioprocessing, 2024).

Assay [1] has as its system T1, rMfiUPO.
T1 construct: gene MfiUPO
The note with it: 2 mM H2O2 co-substrate; 30 °C; optimal pH (pH 4.0 optimum in text; pH 4.5 sodium citrate in Fig. 4 legend).

In assay [2] the test system is T2, rMfiUPO.
T2 construct: gene MfiUPO; full-length codon-optimised gene with native signal peptide, secreted by Pichia pastoris X33 (pPICZ-A); purified, glycosylated, 40-55 kDa smear, about 35 kDa after Endo H; short-type UPO, heme-thiolate
The experiment in a line: spectrophotometric veratraldehyde formation, […] nm, Michaelis-Menten fit. The note with it: 2 mM H2O2 co-substrate; 30 °C; pH 6.0 potassium phosphate. It counts as biochemical, Marasmius fiardii PR-910.

For assay [3], the system named is T2, rMfiUPO. The experiment in a line: spectrophotometric 4-nitrocatechol formation, […] nm, Michaelis-Menten fit. It counts as biochemical, Marasmius fiardii PR-910. As to conditions: 2 mM H2O2 co-substrate; 30 °C; pH 7.0 potassium phosphate.

Structures can show the parent of a compound that is named as a salt. Where two headings read alike, the source gives them in different places.

For orientation: Km means the concentration of substrate that gives half-maximal velocity. In the case of `CCn1c(=NN=c2sc3cc(S(=O)(=O)O)ccc3n2CC)sc2cc(S(=O)(=O)O)ccc21` [ABTS, 2,2ʹ-azinobis (3-ethylbenzothiazoline-6-sulfonic acid) diammonium salt], in assay [1], the Km is 22 ± 7 µM. `COc1ccc(CO)cc1OC` [VA]: the Km in assay [2] came to 392 ± 109 µM. Regarding `O=[N+]([O-])c1ccc2c(c1)OCO2` [NBD, 5-nitro-1,3-benzodioxole], the Km in assay [3] is 93 ± 14 µM.
